The results in this text go back to US9079866B2, “Flap modulators” (JANSSEN PHARMACEUTICA NV, priority 2013, dated 2015).

Bounds are passed on as bounds.

In this experiment the target is human FLAP (Homo sapiens (Human), UniProt P20292). Description: FLAP binding assay (HTRF format). The following applies: wild type FLAP, HTRF format. As to the method: The ability of the compounds of the present invention to treat a FLAP-mediated disease and/or disorder, or associated symptoms or complications thereof, was determined using the following procedures. Binding assay data represent the average value obtained from two different assay plates, with samples run in duplicate on each plate. Human whole blood assay data represent a single replicate on an assay plate using whole blood from at least one healthy donor.
Sequence of human FLAP (P20292 whole entry): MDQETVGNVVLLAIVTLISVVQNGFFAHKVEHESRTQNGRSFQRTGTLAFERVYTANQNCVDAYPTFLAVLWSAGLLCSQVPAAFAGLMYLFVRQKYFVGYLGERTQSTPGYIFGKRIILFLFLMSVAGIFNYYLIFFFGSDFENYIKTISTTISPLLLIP
Data are expressed as a HTRF ratio.
On the technique in general: Time-resolved FRET reads energy transfer from a long-lived donor to a nearby acceptor.
As usually defined, the Ki is a dissociation constant, usually derived from enzyme kinetics or from competition with a known ligand. Read a high Ki as lower affinity. `N#Cc1nc(-c2ccc(-c3ccccc3C(=O)N3CCOCC3)cc2F)cnc1N` [Example 416, 3-Amino-6-[3-fluoro-2′-(morpholin-4-ylcarbonyl)biphenyl-4-yl]pyrazine-2-carbonitrile]: the Ki came out at 1250 nM. In other words, the single-digit micromolar range.

`CC(C)(C)NS(=O)(=O)c1ccccc1-c1ccc(-c2ncc3cc[nH]c3n2)c(F)c1` [Example 418, N-tert-Butyl-3′-fluoro-4′-(7H-pyrrolo[2,3-d]pyrimidin-2-yl)biphenyl-2-sulfonamide] showed a Ki of 1250 nM.

As for `CC(=O)Nc1ccccc1-c1ccc(-c2cnc(N)cn2)c(F)c1` [Example 459, N-[4′-(5-Aminopyrazin-2-yl)-3′-fluorobiphenyl-2-yl]acetamide], the inhibition constant (Ki) is more than 10000 nM.

The molecule `NC(=O)Nc1ccccc1-c1ccc(-c2cnc(N)cn2)c(F)c1` [Example 460, 1-[4′-(5-Aminopyrazin-2-yl)-3′-fluorobiphenyl-2-yl]u rea] had a Ki of more than 10000 nM.

As for `Cc1c(-c2ccccc2NS(C)(=O)=O)ccc(-c2cnc(N)cn2)c1F` [Example 463, N-[4′-(5-Aminopyrazin-2-yl)-3′-fluoro-2′-methylbiphenyl-2-yl]methanesulfonamide], affinity was put at a Ki of 982 nM.

`Nc1cnc(-c2ccc(-c3ccccc3F)cc2F)cn1` [Example 468, 5-(2′,3-Difluorobiphenyl-4-yl)pyrazin-2-amine] returned a Ki of 620 nM.

`Cc1ccccc1-c1ccc(-c2cnc(N)cn2)c(F)c1` [Example 470, 5-(3-Fluoro-2′-methylbiphenyl-4-yl)pyrazin-2-amine] displayed a Ki of 620 nM.

Turning to `Nc1cnc(-c2ccc(-c3ccccc3OC(F)(F)F)cc2F)cn1` [Example 475, 5-[3-Fluoro-2′-(trifluoromethoxy)biphenyl-4-yl]pyrazin-2-amine], the Ki came out at 750 nM.

Turning to `Nc1cnc(-c2ccc(-c3c(F)cccc3F)cc2F)cn1` [Example 478, 5-(2′,3,6′-Trifluorobiphenyl-4-yl)pyrazin-2-amine], affinity was put at a Ki of 250 nM.

`CCc1ccccc1-c1ccc(-c2cnc(N)cn2)c(F)c1` [Example 480, 5-(2′-Ethyl-3-fluorobiphenyl-4-yl)pyrazin-2-amine] displayed an inhibition constant (Ki) of 354 nM. The Ki values of the last two molecules are within 1.5-fold of each other.

Regarding `CC(C)c1ccccc1-c1ccc(-c2cnc(N)cn2)c(F)c1` [Example 482, 5-[3-Fluoro-2′-(1-methylethyl)biphenyl-4-yl]pyrazin-2-amine], the inhibition constant (Ki) was 120 nM.

For the molecule `Nc1cnc(-c2ccc(-c3ccccc3C(=O)O)cc2F)cn1` [Example 485, 4′-(5-Aminopyrazin-2-yl)-3′-fluorobiphenyl-2-carboxylic acid], the Ki was more than 10000 nM.

For `NC(=O)c1ccccc1-c1ccc(-c2cnc(N)cn2)c(F)c1` [Example 486, 4′-(5-Aminopyrazin-2-yl)-3′-fluorobiphenyl-2-carboxamide], the affinity corresponds to a Ki of 2500 nM.

With `Nc1ncc(-c2ccc(-c3ccccc3C(=O)N3CCOCC3)cc2F)cn1` [Example 499, 5-[3-Fluoro-2′-(morpholin-4-ylcarbonyl)biphenyl-4-yl]pyrimidin-2-amine], the Ki amounted to 433 nM. Compared with the last molecule, the Ki is about 5.8-fold lower.

`C[C@H](NC(=O)c1ccccc1-c1ccc(-c2cnc(N)nc2)c(F)c1)C(F)(F)F` [Example 504, 4′-(2-Aminopyrimidin-5-yl)-3′-fluoro-N-[(1S)-2,2,2-trifluoro-1-methylethyl]biphenyl-2-carboxamide] registered a Ki of 768 nM. Against the preceding molecule, the Ki is about 1.8-fold higher.

Consider `Nc1cnc(-c2ccc(-c3ccccc3C(=O)N3CCNCC3)cc2F)cn1` [Example 506, 5-[3-Fluoro-2′-(piperazin-1-ylcarbonyl)biphenyl-4-yl]pyrazin-2-amine], for which the Ki was more than 10000 nM.

As to `CC(=O)N1CCN(C(=O)c2ccccc2-c2ccc(-c3cnc(N)cn3)c(F)c2)CC1` [Example 507, 5-{2′-[(4-Acetylpiperazin-1-yl)carbonyl]-3-fluorobiphenyl-4-yl}pyrazin-2-amine], the Ki is more than 10000 nM.

Consider `Nc1cnc(-c2ccc(-c3ccccc3C(=O)NC3CCCCC3)cc2F)cn1` [Example 508, 4′-(5-Aminopyrazin-2-yl)-N-cyclohexyl-3′-fluorobiphenyl-2-carboxamide], for which the Ki was 790 nM.
